# Results published in paper PMC8049364, “Quantification of Macrophage-Driven Inflammation During Myocardial Infarction with ^18F-LW223, a Novel TSPO Radiotracer with Binding Independent of the rs6971 Human Polymorphism” (Journal of Nuclear Medicine, 2021).
# Target: T1, TSPO (Rattus norvegicus, UniProt P16257)
# T1 construct: Thirty-three adult male Sprague–Dawley rats; from tissue; host or cells: living adult male Sprague-Dawley rats; heart, LV anterior wall, lung and brain VOIs
# Assay: PET/CT imaging and 2-tissue-compartment kinetic modelling in naïve and PK11195-blocked rats
# Format: in vivo
# Parameters: K1 (2T analysis), mean / k2 (2T analysis), mean / k3 (2T analysis), mean / k4 (2T analysis), mean / VT (2T analysis), mean: unit not given here
# Method: Thirty-two PET scans were performed with ^18F-LW223 (17.8 ± 1.5 MBq, intravenous bolus, mean ± SEM). Naïve and MI rat scans were acquired immediately after intravenous bolus injection of ^18F-LW223. […] Dosimetry studies were conducted using mice and 240-min PET scans.
# A commercially available system (Twilite2; Swisstrace) was used for the measurement of blood radioactivity as previously described ([17]). The whole-blood arterial input function measured by the automatic blood sampler was corrected for the plasma–to–whole-blood ratio and for metabolism in vivo.
# Data were acquired using a PET/CT small-animal scanner (nanoPET/CT; Mediso). A CT scan (semicircular full trajectory, maximum field of view, 480 projections, 50 kVp, 300 ms, and 1:4 binning) was acquired for attenuation correction. Immediately after radiotracer administration, a 120- or 240-min emission scan was obtained using 3-dimensional 1:5 mode. For rat studies, rebinning was 18 × 10 s, 2 × 30 s, 1 × 60 s, 2 × 2 min, 10 × 5 min, 6 × 10 min, or 18 × 10 min. For mouse studies, rebinning was 4 × 5 min, 4 × 10 min, or 9 × 20 min. Rat PET studies were reconstructed using the iterative Tera-Tomo 3-dimensional reconstruction algorithm (Mediso), which includes point-spread correction, and the following settings: 4 iterations, 6 subsets, full detector model, low regularization, spike filter on, voxel size of 0.4 mm, and 400- to 600-keV energy window. Mouse dosimetry PET data were reconstructed using filtered backprojection, a voxel size of 0.4 mm, and a 400- to 600-keV energy window. All PET data were corrected for randoms, scatter, and attenuation.
# Reconstructed scans were imported into PMOD, version 3.8 (PMOD Technologies). Volumes of interest (VOIs) were manually drawn around the brain, heart, and lung using CT images. To sample the infarct area (or an equivalent area in naïve hearts), averaged PET images (0–120 min) were used to place 3 spheric VOIs at the center of the infarct territory within the ventricular wall (1.5 mm^3). […] Time–activity curves were generated, and SUVs were calculated as concentration in the VOI divided by injected dose divided by animal weight. Kinetic modeling was performed using the 2-tissue-compartment model to estimate the kinetic rate constants K1–k4 and the total volume of distribution (VT) in different tissues. Blood volume fraction (VB) was not modeled in this study. Two-tissue-compartment modeling was selected as the preferred model on the basis of a comparison of goodness and robustness of fitting versus several other models (Supplemental Fig. 3; Supplemental Table 2). The binding potential relative to nondisplaceable volume (BPND) was defined as k3/k4 ([19]). The transfer-corrected BPND, termed BPTC, was formulated as follows:Eq. 1 BPTC=k3/k4÷K1,
# [1] = Brain, Blocked Naive (PK11195, 1mg/kg) n = 3
# [2] = Global Heart, Blocked Naive (PK11195, 1mg/kg) n = 3
# [3] = LV Anterior Wall, Blocked Naive (PK11195, 1mg/kg) n = 3
# [4] = Lung, Blocked Naive (PK11195, 1mg/kg) n = 3
smiles,measurement,setting,value
CC[C@@H](C)N(C)C(=O)c1nc2ccccc2c(-c2ccccc2)c1C[18F] [^18F-LW223],"K1 (2T analysis), mean",[1],0.06
same,"VT (2T analysis), mean",[1],0.93
same,"k2 (2T analysis), mean",[1],0.11
same,"k3 (2T analysis), mean",[1],2.324
same,"k3/k4 (2T analysis), mean",[1],0.71
same,"k4 (2T analysis), mean",[1],2.33
same,"K1 (2T analysis), mean","Brain, Naive n = 6",0.14
same,"VT (2T analysis), mean","Brain, Naive n = 6",1.6
same,"k2 (2T analysis), mean","Brain, Naive n = 6",0.18
same,"k3 (2T analysis), mean","Brain, Naive n = 6",0.016
same,"k3/k4 (2T analysis), mean","Brain, Naive n = 6",1.22
same,"k4 (2T analysis), mean","Brain, Naive n = 6",0.01
same,"K1 (2T analysis), mean",[2],0.19
same,"VT (2T analysis), mean",[2],4.56
same,"k2 (2T analysis), mean",[2],0.23
same,"k3 (2T analysis), mean",[2],0.721
same,"k3/k4 (2T analysis), mean",[2],4.52
same,"k4 (2T analysis), mean",[2],0.13
same,"K1 (2T analysis), mean","Global Heart, Naive n = 6",0.58
same,"VT (2T analysis), mean","Global Heart, Naive n = 6",9.93
same,"k2 (2T analysis), mean","Global Heart, Naive n = 6",0.33
same,"k3 (2T analysis), mean","Global Heart, Naive n = 6",0.031
same,"k3/k4 (2T analysis), mean","Global Heart, Naive n = 6",4.77
same,"k4 (2T analysis), mean","Global Heart, Naive n = 6",0.01
same,"K1 (2T analysis), mean",[3],0.28
same,"VT (2T analysis), mean",[3],75.25
same,"k2 (2T analysis), mean",[3],0.08
same,"k3 (2T analysis), mean",[3],0.855
same,"k3/k4 (2T analysis), mean",[3],12.64
same,"k4 (2T analysis), mean",[3],0.23
same,"K1 (2T analysis), mean","LV Anterior Wall, Naive n = 6",0.9
same,"VT (2T analysis), mean","LV Anterior Wall, Naive n = 6",29.95
same,"k2 (2T analysis), mean","LV Anterior Wall, Naive n = 6",0.26
same,"k3 (2T analysis), mean","LV Anterior Wall, Naive n = 6",0.033
same,"k3/k4 (2T analysis), mean","LV Anterior Wall, Naive n = 6",7.99
same,"k4 (2T analysis), mean","LV Anterior Wall, Naive n = 6",0.00
same,"K1 (2T analysis), mean",[4],0.16
same,"VT (2T analysis), mean",[4],2.2
same,"k2 (2T analysis), mean",[4],0.35
same,"k3 (2T analysis), mean",[4],0.181
same,"k3/k4 (2T analysis), mean",[4],3.19
same,"k4 (2T analysis), mean",[4],0.05
same,"K1 (2T analysis), mean","Lung, Naive n = 6",0.94
same,"VT (2T analysis), mean","Lung, Naive n = 6",6.94
same,"k2 (2T analysis), mean","Lung, Naive n = 6",0.32
same,"k3 (2T analysis), mean","Lung, Naive n = 6",0.031
same,"k3/k4 (2T analysis), mean","Lung, Naive n = 6",1.38
same,"k4 (2T analysis), mean","Lung, Naive n = 6",0.02
same,specificity of in vivo binding to TSPO,"PK11195 1 mg/kg intravenously, blocking and displacement",blocked and displaced by PK11195
same,BPTC,anterior wall of naïve animals,10.0 ± 2.4 cm^3/mL/min
same,excretion routes,mice and rats,both the urinary and the hepatobiliary excretion routes
same,"Peak SUV, brain",naïve rat,0.83 ± 0.18 g/mL
same,"SUVpeak, heart",rat,2.5
same,"SUVpeak, lung",rat,4.0
same,VT in the brain,rat,1.1–2.2 mL/cm^3
